Measurements: paper PMC9487510, “A Novel Oral GyrB/ParE Dual Binding Inhibitor Effective against Multidrug-Resistant Neisseria gonorrhoeae and Other High-Threat Pathogens” (Antimicrobial Agents and Chemotherapy, 2022)
Converted amounts (≈) assume the structure as drawn. Read-outs that look alike come from different tables or passages of the source.

System: N. gonorrhoeae clinical isolates
Test: MIC, agar dilution (CLSI)
Format: cell-based, Neisseria gonorrhoeae
Conditions: for MIC: read-out: MIC

MIC range (96 clinical isolates): <0.002 to 0.125 µg/mL
MIC (Neisseria gonorrhoeae, strain CDC1 (GCREF2012 016)): 0.031 µg/mL (≈ 0.0559 µM)
MIC (Neisseria gonorrhoeae, strain CDC2 (GCREF2012 045)): 0.031 µg/mL (≈ 0.0559 µM)
MIC (Neisseria gonorrhoeae, strain CDC3 (GCREF2013 013)): 0.031 µg/mL (≈ 0.0559 µM)
MIC (Neisseria gonorrhoeae, strain CDC4 (GCREF2013 030)): 0.031 µg/mL (≈ 0.0559 µM)
MIC (Neisseria gonorrhoeae, strain CDC5 (GCREF2012 001)): 0.063 µg/mL (≈ 0.114 µM)
MIC (Neisseria gonorrhoeae, strain CDC6 (GCREF2012 002)): 0.063 µg/mL (≈ 0.114 µM)
MIC (Neisseria gonorrhoeae, strain CDC8 (GCREF2012 004)): 0.016 µg/mL (≈ 0.0289 µM)
MIC (Neisseria gonorrhoeae, strain CDC9 (GCREF2012 005)): 0.031 µg/mL (≈ 0.0559 µM)
MIC (Neisseria gonorrhoeae, strain CDC10 (GCREF2012 006)): 0.031 µg/mL (≈ 0.0559 µM)
MIC (Neisseria gonorrhoeae, strain CDC11 (GCREF2012 007)): 0.031 µg/mL (≈ 0.0559 µM)
MIC (Neisseria gonorrhoeae, strain CDC12 (GCREF2012 008)): 0.031 µg/mL (≈ 0.0559 µM)
MIC (Neisseria gonorrhoeae, strain CDC13 (GCREF2012 009)): 0.031 µg/mL (≈ 0.0559 µM)
MIC (Neisseria gonorrhoeae, strain CDC14 (GCREF2012 010)): 0.031 µg/mL (≈ 0.0559 µM)
MIC (Neisseria gonorrhoeae, strain CDC15 (GCREF2012 011)): 0.008 µg/mL (≈ 0.0144 µM)
MIC (Neisseria gonorrhoeae, strain CDC16 (GCREF2012 012)): 0.063 µg/mL (≈ 0.114 µM)
MIC (Neisseria gonorrhoeae, strain CDC18 (GCREF2012 014)): 0.063 µg/mL (≈ 0.114 µM)
MIC (Neisseria gonorrhoeae, strain CDC19 (GCREF2012 015)): 0.008 µg/mL (≈ 0.0144 µM)
MIC (Neisseria gonorrhoeae, strain CDC20 (GCREF2012 017)): 0.063 µg/mL (≈ 0.114 µM)
MIC (Neisseria gonorrhoeae, strain CDC21 (GCREF2012 018)): 0.031 µg/mL (≈ 0.0559 µM)
MIC (Neisseria gonorrhoeae, strain CDC22 (GCREF2012 019)): 0.008 µg/mL (≈ 0.0144 µM)
MIC (Neisseria gonorrhoeae, strain CDC23 (GCREF2012 020)): 0.031 µg/mL (≈ 0.0559 µM)
MIC (Neisseria gonorrhoeae, strain CDC24 (GCREF2012 021)): 0.063 µg/mL (≈ 0.114 µM)
MIC (Neisseria gonorrhoeae, strain CDC25 (GCREF2012 022)): 0.031 µg/mL (≈ 0.0559 µM)
MIC (Neisseria gonorrhoeae, strain CDC26 (GCREF2012 023)): 0.031 µg/mL (≈ 0.0559 µM)
MIC (Neisseria gonorrhoeae, strain CDC27 (GCREF2012 024)): 0.031 µg/mL (≈ 0.0559 µM)
MIC (Neisseria gonorrhoeae, strain CDC28 (GCREF2012 025)): 0.031 µg/mL (≈ 0.0559 µM)
MIC (Neisseria gonorrhoeae, strain CDC29 (GCREF2012 026)): 0.016 µg/mL (≈ 0.0289 µM)
MIC (Neisseria gonorrhoeae, strain CDC30 (GCREF2012 027)): 0.031 µg/mL (≈ 0.0559 µM)
MIC (Neisseria gonorrhoeae, strain CDC31 (GCREF2012 028)): 0.031 µg/mL (≈ 0.0559 µM)
MIC (Neisseria gonorrhoeae, strain CDC32 (GCREF2012 029)): 0.063 µg/mL (≈ 0.114 µM)
MIC (Neisseria gonorrhoeae, strain CDC33 (GCREF2012 030)): 0.125 µg/mL (≈ 0.225 µM)
MIC (Neisseria gonorrhoeae, strain CDC34 (GCREF2012 031)): 0.125 µg/mL (≈ 0.225 µM)
MIC (Neisseria gonorrhoeae, strain CDC35 (GCREF2012 032)): 0.125 µg/mL (≈ 0.225 µM)
MIC (Neisseria gonorrhoeae, strain CDC36 (GCREF2012 033)): 0.031 µg/mL (≈ 0.0559 µM)
MIC (Neisseria gonorrhoeae, strain CDC37 (GCREF2012 034)): 0.031 µg/mL (≈ 0.0559 µM)
MIC (Neisseria gonorrhoeae, strain CDC38 (GCREF2012 035)): 0.031 µg/mL (≈ 0.0559 µM)
MIC (Neisseria gonorrhoeae, strain CDC39 (GCREF2012 036)): 0.031 µg/mL (≈ 0.0559 µM)
MIC (Neisseria gonorrhoeae, strain CDC40 (GCREF2012 037)): 0.031 µg/mL (≈ 0.0559 µM)
MIC (Neisseria gonorrhoeae, strain CDC41 (GCREF2012 038)): 0.031 µg/mL (≈ 0.0559 µM)
MIC (Neisseria gonorrhoeae, strain CDC42 (GCREF2012 039)): 0.031 µg/mL (≈ 0.0559 µM)
MIC (Neisseria gonorrhoeae, strain CDC43 (GCREF2012 040)): 0.031 µg/mL (≈ 0.0559 µM)
MIC (Neisseria gonorrhoeae, strain CDC45 (GCREF2012 042)): 0.125 µg/mL (≈ 0.225 µM)
MIC (Neisseria gonorrhoeae, strain CDC46 (GCREF2012 043)): 0.031 µg/mL (≈ 0.0559 µM)
MIC (Neisseria gonorrhoeae, strain CDC47 (GCREF2012 044)): 0.031 µg/mL (≈ 0.0559 µM)
MIC (Neisseria gonorrhoeae, strain CDC48 (GCREF2012 046)): 0.031 µg/mL (≈ 0.0559 µM)
MIC (Neisseria gonorrhoeae, strain CDC49 (GCREF2012 047)): 0.031 µg/mL (≈ 0.0559 µM)
MIC (Neisseria gonorrhoeae, strain CDC50 (GCREF2012 048)): 0.063 µg/mL (≈ 0.114 µM)
MIC (Neisseria gonorrhoeae, strain CDC51 (GCREF2012 049)): 0.008 µg/mL (≈ 0.0144 µM)
MIC (Neisseria gonorrhoeae, strain CDC52 (GCREF2012 050)): 0.008 µg/mL (≈ 0.0144 µM)
MIC (Neisseria gonorrhoeae, strain CDC53 (GCREF2012 051)): 0.004 µg/mL (≈ 0.00721 µM)
MIC (Neisseria gonorrhoeae, strain CDC54 (GCREF2012 052)): 0.004 µg/mL (≈ 0.00721 µM)
MIC (Neisseria gonorrhoeae, strain CDC55 (GCREF2013 001)): 0.031 µg/mL (≈ 0.0559 µM)
MIC (Neisseria gonorrhoeae, strain CDC56 (GCREF2013 002)): 0.016 µg/mL (≈ 0.0289 µM)
MIC (Neisseria gonorrhoeae, strain CDC57 (GCREF2013 003)): 0.004 µg/mL (≈ 0.00721 µM)
MIC (Neisseria gonorrhoeae, strain CDC58 (GCREF2013 004)): 0.004 µg/mL (≈ 0.00721 µM)
MIC (Neisseria gonorrhoeae, strain CDC59 (GCREF2013 044)): 0.004 µg/mL (≈ 0.00721 µM)
MIC (Neisseria gonorrhoeae, strain CDC60 (GCREF2013 005)): 0.031 µg/mL (≈ 0.0559 µM)
MIC (Neisseria gonorrhoeae, strain CDC61 (GCREF2013 006)): 0.031 µg/mL (≈ 0.0559 µM)
MIC (Neisseria gonorrhoeae, strain CDC62 (GCREF2013 007)): 0.008 µg/mL (≈ 0.0144 µM)
MIC (Neisseria gonorrhoeae, strain CDC64 (GCREF2013 009)): 0.008 µg/mL (≈ 0.0144 µM)
MIC (Neisseria gonorrhoeae, strain CDC65 (GCREF2013 010)): 0.016 µg/mL (≈ 0.0289 µM)
MIC (Neisseria gonorrhoeae, strain CDC66 (GCREF2013 011)): 0.008 µg/mL (≈ 0.0144 µM)
MIC (Neisseria gonorrhoeae, strain CDC67 (GCREF2013 014)): 0.008 µg/mL (≈ 0.0144 µM)
MIC (Neisseria gonorrhoeae, strain CDC68 (GCREF2013 016)): 0.016 µg/mL (≈ 0.0289 µM)
MIC (Neisseria gonorrhoeae, strain CDC69 (GCREF2013 017)): 0.031 µg/mL (≈ 0.0559 µM)
MIC (Neisseria gonorrhoeae, strain CDC70 (GCREF2013 018)): 0.004 µg/mL (≈ 0.00721 µM)
MIC (Neisseria gonorrhoeae, strain CDC71 (GCREF2013 019)): 0.008 µg/mL (≈ 0.0144 µM)
MIC (Neisseria gonorrhoeae, strain CDC72 (GCREF2013 020)): 0.031 µg/mL (≈ 0.0559 µM)
MIC (Neisseria gonorrhoeae, strain CDC73 (GCREF2013 021)): 0.008 µg/mL (≈ 0.0144 µM)
MIC (Neisseria gonorrhoeae, strain CDC74 (GCREF2013 022)): 0.008 µg/mL (≈ 0.0144 µM)
MIC (Neisseria gonorrhoeae, strain CDC75 (GCREF2013 023)): 0.016 µg/mL (≈ 0.0289 µM)
MIC (Neisseria gonorrhoeae, strain CDC76 (GCREF2013 024)): 0.016 µg/mL (≈ 0.0289 µM)
MIC (Neisseria gonorrhoeae, strain CDC77 (GCREF2013 025)): 0.008 µg/mL (≈ 0.0144 µM)
MIC (Neisseria gonorrhoeae, strain CDC78 (GCREF2013 026)): 0.016 µg/mL (≈ 0.0289 µM)
MIC (Neisseria gonorrhoeae, strain CDC79 (GCREF2013 027)): 0.016 µg/mL (≈ 0.0289 µM)
MIC (Neisseria gonorrhoeae, strain CDC80 (GCREF2013 028)): 0.008 µg/mL (≈ 0.0144 µM)
MIC (Neisseria gonorrhoeae, strain CDC81 (GCREF2013 029)): 0.031 µg/mL (≈ 0.0559 µM)
MIC (Neisseria gonorrhoeae, strain CDC82 (GCREF2013 031)): 0.031 µg/mL (≈ 0.0559 µM)
MIC (Neisseria gonorrhoeae, strain CDC83 (GCREF2013 032)): 0.008 µg/mL (≈ 0.0144 µM)
MIC (Neisseria gonorrhoeae, strain CDC84 (GCREF2013 033)): 0.008 µg/mL (≈ 0.0144 µM)
MIC (Neisseria gonorrhoeae, strain CDC86 (GCREF2013 035)): 0.008 µg/mL (≈ 0.0144 µM)
MIC (Neisseria gonorrhoeae, strain CDC87 (GCREF2013 036)): 0.063 µg/mL (≈ 0.114 µM)
MIC (Neisseria gonorrhoeae, strain CDC88 (GCREF2013 037)): 0.031 µg/mL (≈ 0.0559 µM)
MIC (Neisseria gonorrhoeae, strain CDC89 (GCREF2013 038)): 0.008 µg/mL (≈ 0.0144 µM)
MIC (Neisseria gonorrhoeae, strain CDC90 (GCREF2013 039)): 0.031 µg/mL (≈ 0.0559 µM)
MIC (Neisseria gonorrhoeae, strain CDC91 (GCREF2013 040)): 0.125 µg/mL (≈ 0.225 µM)
MIC (Neisseria gonorrhoeae, strain CDC92 (GCREF2013 041)): 0.031 µg/mL (≈ 0.0559 µM)
MIC (Neisseria gonorrhoeae, strain CDC93 (GCREF2013 042)): 0.016 µg/mL (≈ 0.0289 µM)
MIC (Neisseria gonorrhoeae, strain CDC94 (GCREF2013 043)): 0.008 µg/mL (≈ 0.0144 µM)
MIC (Neisseria gonorrhoeae, strain CDC95 (GCREF2013 045)): 0.031 µg/mL (≈ 0.0559 µM)
MIC (Neisseria gonorrhoeae, strain CDC96 (GCREF2013 046)): 0.016 µg/mL (≈ 0.0289 µM)
MIC (Neisseria gonorrhoeae, strain CDC97 (GCREF2013 047)): 0.031 µg/mL (≈ 0.0559 µM)
MIC (Neisseria gonorrhoeae, strain CDC98 (GCREF2013 048)): 0.008 µg/mL (≈ 0.0144 µM)
MIC (Neisseria gonorrhoeae, strain CDC99 (GCREF2013 012)): 0.008 µg/mL (≈ 0.0144 µM)
MIC (Neisseria gonorrhoeae, strain CDC100 (GCREF2013 015)): 0.031 µg/mL (≈ 0.0559 µM)
MIC50 (Neisseria gonorrhoeae, 96 clinical isolates, read-out: MIC50): 0.031 µg/mL (≈ 0.0559 µM)
MIC90 (Neisseria gonorrhoeae, 96 clinical isolates, read-out: MIC90): 0.063 µg/mL (≈ 0.114 µM)
SMILES: CO/N=C(\C(=O)N[C@@H]1C(=O)N2C(C(=O)O)=C(CSc3nc(=O)c(=O)[nH]n3C)CS[C@H]12)c1csc(N)n1 [Cro, ceftriaxone]
